Results taken from patent US12070502B2, “Process for reducing subvisible particles in a pharmaceutical formulation” (Regeneron Pharmaceuticals, Inc., priority 2014, dated 2024).

Legend:
[1] = Stability of polysorbate 20 / polysorbate 80 esters in 150 mg/mL antibody (mAb1) formulation by mass spectroscopy; details: for Percent Ester Degradation: 150 mg/mL antibody (mAb1) formulation; for percent remaining esters, Diester / percent remaining esters, Monoester: 150 mg/mL mAb1, 0.02% detergent, no HIC (process 3)
Procedure: The stability of polysorbate 20 and polysorbate 80 in the 150 mg/mL antibody (mAb1) formulation containing 0.02% non-ionic detergent (polysorbate) prepared without HIC [process 3, see below and Table 8]) were compared, under the hypothesis that degradation of the fatty acid ester promotes protein instability and consequent SVP formation. The relative amounts of remaining esters (mono- and di-esters) were determined by mass spectroscopy.
The rates of degradation of polysorbate 20 and polysorbate 80 formulated with 150 mg/mL antibody (mAb1) (as described above for Table 5) were determined under identical conditions using mass spectroscopy to measure relative amounts of free fatty acids and fatty acid esters. Percent ester degradation was determined using the following formula:
[formula] wherein T0=time zero, T1=time at experimental condition (i.e., 2 months at 45° C.; 6 months at 5° C.), and POE=polyoxyethylene. […]
The time point samples were analyzed using an anion exchange column (Oasis MAX column, 30 μm, 2.1 mm×20 mm; Waters Corporation, Milford, Mass.) followed at t=5 minutes with reverse phase chromatography (ACQUITY UPLC® BEH 130 C4 column, 1.7 μm, 2.1 mm×50 mm; Waters Corporation, Milford, Mass.). The reverse phase output was connected to a mass spectrometer (Thermo Q-Exactive mass spectrometer; Thermo Fisher Scientific, Inc., Wilmington, Del.). The chromatographic conditions are described in Table 11.
The system was equilibrated with 99% mobile phase A (0.1% formic acid in water) at a flow rate of 0.1 mL/minute for 40 minutes prior to first injection. Water was used as a blank injection. The mass spectrometer parameters were as follows: mass range 150-2000 m/z; heater temperature at 250° C.; voltage 3.8 kv; sheath gas 40; auxiliary gas 10; capillary temperature 350° C.; and S-lens 50.

[2] = tested on: polysorbate degrading activity; assay: Reduction of polysorbate 20 degradation by lipase inhibitors; format: biochemical, CHO cell; details: relative to control without inhibitor
Text: Polysorbate degradation activity was followed during HIC purification of an exemplar antibody produced in CHO cell culture. Partially purified CHO cell extract was applied to HIC (phenyl-sepharose). The flow-through, which contained almost all of the antibody, was collected and analyzed for polysorbate degradation activity. […] The HIC bound fraction was stripped from the HIC media and subsequently subjected to 100 kDa cut-off ultrafiltration/diafiltration. The unfiltered stripped fraction contained 9.9% polysorbate degradation activity, the filter permeate contained 1.3% polysorbate degradation activity and 5% antibody yield, and the filter retentate contained 7.4% polysorbate degradation activity and 95% antibody yield.
Whether the polysorbate degrading activity is a lipase was tested by combining a lipase inhibitor with the polysorbate degrading activity fraction spiked with polysorbate 20. Table 12 presents the data showing a reduction of polysorbate degrading activity due to lipase inhibitor relative to the control (antibody with associated polysorbate degrading activity plus polysorbate 20 without lipase inhibitor).

Compound | Percent Ester Degradation ([1]; 2 months at 45° C.) [%] | percent remaining esters, Diester ([1]; 2 months at 45° C.) [%] | percent remaining esters, Monoester ([1]; 2 months at 45° C.) [%] | Percent Ester Degradation ([1]; 6 months at 5° C.) [%] | percent remaining esters, Diester ([1]; 6 months at 5° C.) [%] | percent remaining esters, Monoester ([1]; 6 months at 5° C.) [%] | Percent Ester Degradation ([1]; Time zero) [%] | percent remaining esters, Diester ([1]; Time zero) [%] | percent remaining esters, Monoester ([1]; Time zero) [%] | Percent Reduction in Polysorbate 20 Degradation ([2]; 0.001 mM lipase inhibitor) [%] | Percent Reduction in Polysorbate 20 Degradation ([2]; 0.01 mM lipase inhibitor) [%] | Percent Reduction in Polysorbate 20 Degradation ([2]; 0.1 mM lipase inhibitor) [%]
polysorbate 20 [PS20] | 63 | 10 | 30 | 22 | 30 | 60 | 0 | 100 | 100 | – | – | –
O=C(Nc1cccc(-c2ccccc2)c1)OC1CCCCC1 [URB602, [1-1′-biphenyl]-3-tl-carbamicacid cyclohexyl ester] | – | – | – | – | – | – | – | – | – | 0 | 20 | 0
CCCCCCCCCCC[C@@H](C[C@@H]1OC(=O)[C@H]1CCCCCC)OC(=O)[C@H](CC(C)C)NC=O [Orlistat, orlistat] | – | – | – | – | – | – | – | – | – | 0 | 27.8 | 67
diethylumbelliferyl phosphate | – | – | – | – | – | – | – | – | – | 48 | 100 | >95
CCCCOc1ccccc1B(O)O [2-Butoxyphenyl boronic acid, 2-butoxyphenylboronic acid] | – | – | – | – | – | – | – | – | – | 0 | 28 | 0
